Measurements as given in patent US11166924B2, “N-methyl-d-aspartate receptor allosteric modulators and methods for their use” (Qingdao Primedicine Pharmaceutical Company, Ltd., priority 2016, dated 2021).

What was measured:
GluN1/GluN2A^I176Y = target: T1, GluN1/GluN2A^I176Y (Rattus norvegicus, UniProt P35439+Q00959, I176Y); test: Patch clamp in HEK293 cells expressing mutant GluN1/GluN2A I176Y; assay type: cell-based
T1 construct: expressed in transfected cells; host or cells: HEK293
Procedure: (§1) Whole cell patch-clamp recordings were performed under voltage-clamp mode using an Axopatch 200B or 1D patch-clamp amplifier (Molecular Devices). Whole-cell currents were recorded at a holding potential of −60 mV unless indicated elsewhere, and signals were filtered at 2 kHz, digitized at 10 kHz (Digidata 1322A). Recording pipettes (3-5 MΩ) were filled with intracellular solution containing (mM): CsCl 140, HEPES 10, Mg-ATP 4, QX-314 5, pH 7.20; osmolarity, 290-295 mOsm. BAPTA (10 mM) was added in the intracellular solution (unless otherwise specified). The coverslips were continuously superfused with extracellular solution containing (mM): NaCl 140, KCl 5.4, HEPES 10, CaCl2 1.3, glucose 20, pH 7.4; osmolarity, 305-315 mOsm. NMDA-induced currents were applied by NMDA through perfusion fast-step (Warner Instruments). With perfusion fast-step system, NMDA application was achieved by using a two-square barrel glass tubing and depending on the age of the cultured neurons, CNQX (10 μM), TTX (0.5 μM) or BIC (10 μM) were added in the extracellular solution to minimize the activation of ionotropic glutamate receptors and voltage-gated sodium channels, respectively. All experiments were performed at room temperature. Recordings from at least six HEK293 cells/neurons were performed for all active compounds. […]

[1] = target: T2, GluN2A component of NMDAR currents in hippocampal slices (Mus musculus, UniProt P35436+P35438); test: Slice recordings, GluN2A component of synaptic NMDAR currents; conditions: FIG. 18
T2 construct: from tissue; host or cells: mouse hippocampal slices, CA1 pyramidal neurons
From the text: 6-8 week old C57/Bl6 mice or rats underwent cervical dislocation followed by decapitation. The brain was immediately transferred to an ice cold NMDG-based cutting solution consisting of: (in mM): 120 NMDG, 2.5 KCl, 1.2 NaH2PO4, 25 NaHCO3, 1.0 CaCl2, 7.0 MgCl2, 2.4 Na-pyruvate, 1.3 Na-ascorbate, 20 D-glucose with pH adjusted to 7.35 using HCl acid (unless stated, all chemicals and drugs were purchased from Sigma or BioShop, Canada). The hippocampus was dissected out and transverse hippocampal slices (400 μm) were obtained using a manual tissue chopper (Stoelting, Wood Dale, Ill., USA). Slices recovered in a heated (30° C.) incubating chamber for 1 hr which contained ACSF composed of (in mM): 124 NaCl, 3 KCl, 1.25 NaH2PO4, 1 MgSO47H2O, 2 CaCl2), 26 NaHCO3 and 15 D-glucose which was bubbled continuously with carbogen (95% O2/5% CO2) (pH to 7.3). After 30 additional minutes at room temperature, slices were transferred to a submerged recording chamber and were perfused continuously with carbogenated ACSF (2-3 ml/min). Whole-cell recordings of CA1 pyramidal neurons were performed using the “blind” method with a MultiClamp 700B amplifier. EPSCs (excitatory post synaptic currents) were elicited by stimulating the SC pathway. For isolation of NMDAR currents, cells were voltage clamped at +40 mV. […]

GluN1^R115E/GluN2A = target: T3, GluN1^R115E/GluN2A (Rattus norvegicus, UniProt P35439+Q00959, R115E); test: Patch clamp in HEK293 cells expressing mutant GluN1 R115E/GluN2A; assay type: cell-based
T3 construct: expressed in transfected cells; host or cells: HEK293
T3 sequence (Q00959 23-1464, other chains not shown): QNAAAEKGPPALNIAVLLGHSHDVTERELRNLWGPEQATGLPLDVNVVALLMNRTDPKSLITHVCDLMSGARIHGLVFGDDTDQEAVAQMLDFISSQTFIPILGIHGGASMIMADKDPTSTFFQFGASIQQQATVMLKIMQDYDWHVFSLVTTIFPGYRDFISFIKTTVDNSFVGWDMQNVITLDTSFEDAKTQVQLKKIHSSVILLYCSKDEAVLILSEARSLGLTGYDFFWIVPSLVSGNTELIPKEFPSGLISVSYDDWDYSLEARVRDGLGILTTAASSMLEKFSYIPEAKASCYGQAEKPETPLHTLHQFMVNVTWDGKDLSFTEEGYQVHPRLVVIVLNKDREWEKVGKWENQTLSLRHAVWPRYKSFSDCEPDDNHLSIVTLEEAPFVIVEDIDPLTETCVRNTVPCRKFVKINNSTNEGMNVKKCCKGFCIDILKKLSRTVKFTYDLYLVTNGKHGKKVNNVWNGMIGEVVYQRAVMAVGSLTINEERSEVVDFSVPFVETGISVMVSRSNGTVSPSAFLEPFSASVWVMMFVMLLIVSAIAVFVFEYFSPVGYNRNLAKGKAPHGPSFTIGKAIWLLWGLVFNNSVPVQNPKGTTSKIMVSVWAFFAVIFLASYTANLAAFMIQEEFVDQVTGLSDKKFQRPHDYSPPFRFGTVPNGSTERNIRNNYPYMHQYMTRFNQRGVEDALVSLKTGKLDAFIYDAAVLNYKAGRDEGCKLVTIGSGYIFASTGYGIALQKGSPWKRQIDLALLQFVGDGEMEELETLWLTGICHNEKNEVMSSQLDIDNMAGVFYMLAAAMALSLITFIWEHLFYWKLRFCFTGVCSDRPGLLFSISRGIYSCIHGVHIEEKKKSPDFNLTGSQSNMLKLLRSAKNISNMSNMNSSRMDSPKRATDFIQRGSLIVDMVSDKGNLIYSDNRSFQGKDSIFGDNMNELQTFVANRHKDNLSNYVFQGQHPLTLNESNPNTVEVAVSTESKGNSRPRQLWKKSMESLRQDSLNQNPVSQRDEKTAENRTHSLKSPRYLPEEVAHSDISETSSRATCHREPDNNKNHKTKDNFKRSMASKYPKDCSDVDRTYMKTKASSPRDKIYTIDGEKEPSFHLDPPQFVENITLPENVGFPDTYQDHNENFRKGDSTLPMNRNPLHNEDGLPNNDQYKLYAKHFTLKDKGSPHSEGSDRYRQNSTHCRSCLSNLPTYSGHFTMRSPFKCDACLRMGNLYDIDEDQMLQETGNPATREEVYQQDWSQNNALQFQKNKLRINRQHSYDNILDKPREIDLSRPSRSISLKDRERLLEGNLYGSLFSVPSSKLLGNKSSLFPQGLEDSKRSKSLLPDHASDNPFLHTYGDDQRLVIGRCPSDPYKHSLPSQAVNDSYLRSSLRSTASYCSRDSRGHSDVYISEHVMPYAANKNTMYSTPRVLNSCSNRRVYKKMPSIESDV
Procedure: as §1

GluN1/GluN2A^F115S = target: T4, GluN1/GluN2A^F115S (Rattus norvegicus, UniProt P35439+Q00959, F115S); test: Patch clamp in HEK293 cells expressing mutant GluN1/GluN2A F115S; assay type: cell-based
T4 construct: expressed in transfected cells; host or cells: HEK293
T4 sequence (Q00959 23-1464 F115S, other chains not shown): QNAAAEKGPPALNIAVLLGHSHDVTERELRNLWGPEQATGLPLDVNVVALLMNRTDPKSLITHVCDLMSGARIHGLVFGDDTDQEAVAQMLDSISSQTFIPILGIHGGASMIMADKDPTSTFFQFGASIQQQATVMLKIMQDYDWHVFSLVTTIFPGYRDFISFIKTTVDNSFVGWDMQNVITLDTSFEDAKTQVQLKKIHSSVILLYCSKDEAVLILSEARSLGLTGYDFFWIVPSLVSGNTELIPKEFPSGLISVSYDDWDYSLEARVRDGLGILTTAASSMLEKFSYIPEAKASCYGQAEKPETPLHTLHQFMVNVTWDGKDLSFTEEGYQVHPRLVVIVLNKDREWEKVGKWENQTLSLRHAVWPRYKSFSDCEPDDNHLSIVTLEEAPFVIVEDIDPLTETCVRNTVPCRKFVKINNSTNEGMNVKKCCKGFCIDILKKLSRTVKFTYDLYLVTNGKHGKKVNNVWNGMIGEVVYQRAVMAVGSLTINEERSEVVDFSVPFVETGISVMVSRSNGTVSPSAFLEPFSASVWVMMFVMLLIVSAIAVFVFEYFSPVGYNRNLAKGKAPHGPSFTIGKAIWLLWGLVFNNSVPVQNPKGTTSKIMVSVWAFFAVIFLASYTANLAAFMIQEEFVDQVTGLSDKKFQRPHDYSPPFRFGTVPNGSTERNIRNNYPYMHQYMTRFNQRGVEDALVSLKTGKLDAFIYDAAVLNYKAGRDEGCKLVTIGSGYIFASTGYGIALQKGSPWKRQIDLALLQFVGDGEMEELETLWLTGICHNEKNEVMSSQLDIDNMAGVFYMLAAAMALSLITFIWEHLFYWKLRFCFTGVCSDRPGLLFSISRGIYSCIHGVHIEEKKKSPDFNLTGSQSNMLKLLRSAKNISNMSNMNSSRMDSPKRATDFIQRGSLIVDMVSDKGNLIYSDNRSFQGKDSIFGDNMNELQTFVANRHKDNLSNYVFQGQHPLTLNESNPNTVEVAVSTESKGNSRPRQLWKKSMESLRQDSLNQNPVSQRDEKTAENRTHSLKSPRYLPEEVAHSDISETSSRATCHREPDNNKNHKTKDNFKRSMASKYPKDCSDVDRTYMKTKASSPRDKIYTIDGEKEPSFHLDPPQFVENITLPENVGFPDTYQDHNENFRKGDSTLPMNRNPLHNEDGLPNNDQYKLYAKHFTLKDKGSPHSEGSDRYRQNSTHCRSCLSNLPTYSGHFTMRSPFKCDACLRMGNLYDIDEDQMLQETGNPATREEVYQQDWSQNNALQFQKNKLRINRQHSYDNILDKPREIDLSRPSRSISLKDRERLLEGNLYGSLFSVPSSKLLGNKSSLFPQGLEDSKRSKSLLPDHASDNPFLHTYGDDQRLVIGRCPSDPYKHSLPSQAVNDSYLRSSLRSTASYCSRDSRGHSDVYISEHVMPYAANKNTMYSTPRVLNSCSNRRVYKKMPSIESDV
Procedure: as §1

cortical neurons = test: NMDA-induced excitotoxicity (LDH release) in cortical neurons; assay type: cell-based, rat; conditions: in the absence of NVP-AAM007; FIG. 16
Procedure: Lactate dehydrogenase (LDH) is a cytoplasmic enzyme that can convert nicotinamide adenine dinucleotide (NAD) into NADH (the reduced form). LDH is released from cells into culture medium when the plasma membrane integrity is compromised. Therefore, the amount of released LDH represents the degree of cell death. In this study, the extracellular LDH level was measured using an in vitro toxicology assay kit obtained from Sigma-Aldrich (no. TOX-7). The basis of this LDH assay is as follows: (1) LDH reduces NAD into NADH, (2) the resulting NADH is then used in the stoichiometric conversion of a tetrazolium dye, and (3) the resulting colored compound is measured by a spectrophotometric microplate reader at a wavelength of 490 nm. The cell death rate was expressed as a ratio (%) between the absorbance of the treated group and that of the control group.
Cortical cultures were treated with Npam43, and assessed for NMDA-induced excitotoxicity after 20-24 hrs by measuring lactate dehydrogenase (LDH) release. […] LDH release was measured using an in vitro toxicology assay kit obtained from Sigma-Aldrich (no. TOX-7). The cell death rate was expressed as a ratio (%) between the absorbance of the treated group and that of the control group.

T1 sequence (Q00959 23-1464 I176Y, other chains not shown): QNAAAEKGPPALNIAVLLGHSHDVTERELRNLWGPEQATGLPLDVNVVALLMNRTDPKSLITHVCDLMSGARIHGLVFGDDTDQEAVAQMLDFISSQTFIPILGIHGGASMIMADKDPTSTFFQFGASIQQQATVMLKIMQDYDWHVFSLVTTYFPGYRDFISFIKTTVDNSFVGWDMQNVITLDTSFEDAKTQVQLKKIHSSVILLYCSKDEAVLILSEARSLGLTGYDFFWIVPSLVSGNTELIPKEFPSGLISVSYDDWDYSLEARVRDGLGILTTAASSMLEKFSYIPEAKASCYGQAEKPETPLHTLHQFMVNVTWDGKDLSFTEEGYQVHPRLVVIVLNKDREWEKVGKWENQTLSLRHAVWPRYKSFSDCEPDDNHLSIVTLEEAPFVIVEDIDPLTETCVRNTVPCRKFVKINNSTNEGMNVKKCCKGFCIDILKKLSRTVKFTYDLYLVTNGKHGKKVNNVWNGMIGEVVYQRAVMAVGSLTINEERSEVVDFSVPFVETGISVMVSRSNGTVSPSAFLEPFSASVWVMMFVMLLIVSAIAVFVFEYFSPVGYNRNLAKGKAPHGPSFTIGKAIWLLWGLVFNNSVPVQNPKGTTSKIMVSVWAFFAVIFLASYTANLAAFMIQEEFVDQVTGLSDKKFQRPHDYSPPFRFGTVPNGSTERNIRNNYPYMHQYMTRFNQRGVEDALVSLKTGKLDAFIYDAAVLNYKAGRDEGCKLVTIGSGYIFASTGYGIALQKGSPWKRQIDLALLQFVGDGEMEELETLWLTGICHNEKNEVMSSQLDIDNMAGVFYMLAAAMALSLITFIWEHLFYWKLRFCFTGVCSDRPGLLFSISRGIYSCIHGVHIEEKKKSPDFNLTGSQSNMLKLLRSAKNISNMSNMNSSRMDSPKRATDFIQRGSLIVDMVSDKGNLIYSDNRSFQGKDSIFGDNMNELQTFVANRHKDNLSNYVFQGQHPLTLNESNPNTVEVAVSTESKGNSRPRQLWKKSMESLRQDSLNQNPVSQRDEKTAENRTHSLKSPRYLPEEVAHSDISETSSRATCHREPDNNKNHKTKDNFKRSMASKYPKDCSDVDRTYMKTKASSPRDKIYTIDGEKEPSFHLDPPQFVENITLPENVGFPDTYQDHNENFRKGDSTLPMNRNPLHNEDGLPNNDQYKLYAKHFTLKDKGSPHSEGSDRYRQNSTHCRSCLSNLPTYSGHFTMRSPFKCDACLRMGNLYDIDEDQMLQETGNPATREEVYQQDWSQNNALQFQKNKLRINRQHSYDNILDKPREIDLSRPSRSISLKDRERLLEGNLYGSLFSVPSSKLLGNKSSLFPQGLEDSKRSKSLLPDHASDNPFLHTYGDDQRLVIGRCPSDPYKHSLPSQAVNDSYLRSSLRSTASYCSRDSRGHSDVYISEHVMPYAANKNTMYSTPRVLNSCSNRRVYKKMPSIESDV

## CCOc1cc(Cl)c(Cl)c(/C=N/NC(=O)c2ccccc2Br)c1O [Npam43, (E)-2-bromo-N′-(2,3-dichloro-5-ethoxy-6-hydroxybenzylidene)benzohydrazide]
GluN1/GluN2A^I176Y; Table 3
  Relative potentiation: 189 ± 3.8%
GluN1/GluN2A^I176Y; normalized to wild-type
  Net Difference potentiation: −10.1 ± 0.12%
[1]
  Effect on GluN2A component of NMDAR currents: selectively potentiated the GluN2A component of NMDAR currents
GluN1^R115E/GluN2A; Table 3
  Relative potentiation: 255 ± 3.5%
GluN1^R115E/GluN2A; normalized to wild-type
  Net Difference potentiation: +22.0 ± 0.40%
GluN1/GluN2A^F115S; Table 3
  Relative potentiation: 68.1 ± 14.1%
GluN1/GluN2A^F115S; normalized to wild-type
  Net Difference potentiation: −67.4±11.8%
Cortical neurons
  NMDA-induced excitotoxicity: reduced
